Test systems include NCI-H522 lung; RPMI-8226 leukemia; NCI-H460 lung; HT29 colon; SK-MEL-5 melanoma; 786-0 renal; UACC-62 melanoma; MDA-MB-231 breast; SK-MEL-2 melanoma; A498 renal.
Test in all cases: NCI anticancer screen, dose series, 48 h

Our source for the GI50 and TGI values is PubChem BioAssay (NCI).

SMILES strings stand for the structures.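 Dose response: 5 concentrations. Exposure: 48 h. Format: 96-well plates. Endpoint: linear interpolation; highest concentration if not reached. GI50 = concentration required for 50% inhibition of growth. TGI is the concentration that stops growth completely.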

For the molecule `COc1cc(N2C(=O)[C@H](Cl)C2c2ccc(SC)cc2)cc(OC)c1OC` (stereo partly specified), the GI50 was 0.0299 µM in the assay on NCI-H522 lung; 0.348 µM in the assay with RPMI-8226 leukemia; 0.362 µM in the assay with NCI-H460 lung; 0.0438 µM with HT29 colon; 0.0522 µM with SK-MEL-5 melanoma; 0.0456 µM with 786-0 renal. Besides, the figures for the GI50 in the assay on UACC-62 melanoma, with MDA-MB-231 breast and with SK-MEL-2 melanoma were 0.0712 µM, 0.238 µM and 0.3 µM, respectively. The TGI in the assay with NCI-H522 lung was 0.263 µM; with RPMI-8226 leukemia, 10.5 µM; in the assay on NCI-H460 lung, 11.6 µM; in the assay on HT29 colon it was above 100 µM; in the assay with SK-MEL-5 melanoma, 0.468 µM; in the assay with 786-0 renal it was 1.83 µM. Also, the TGI in the assay with UACC-62 melanoma was 91.5 µM; with MDA-MB-231 breast it was above 100 µM; in the assay with SK-MEL-2 melanoma it was above 100 µM.
Take `COc1cc(O)ccc1C(=S)SC`: the TGI in the assay with NCI-H522 lung is above 100 µM; in the assay with RPMI-8226 leukemia, 55.6 µM; in the assay on NCI-H460 lung, above 100 µM; in the assay on HT29 colon, above 100 µM; with SK-MEL-5 melanoma, above 100 µM; with 786-0 renal, above 100 µM. For the same molecule, the values for the TGI in the assay with UACC-62 melanoma, in the assay with MDA-MB-231 breast and with SK-MEL-2 melanoma were above 100 µM, 88.4 µM and above 100 µM, respectively.
As for `COc1cc2c(cc1OCCNC(=O)/C=C1\C[C@H]3C=Nc4cc(OCc5ccccc5)c(OC)cc4C(=O)N3C1)N=C[C@@H]1CCCN1C2=O`, the GI50 was 1.62 µM with NCI-H522 lung; 1.18 µM in the assay with RPMI-8226 leukemia; 13.6 µM in the assay on NCI-H460 lung; 20.3 µM in the assay on HT29 colon; 1.3 µM with SK-MEL-5 melanoma; 3.68 µM with 786-0 renal. Moreover, the GI50 was 2.65 µM in the assay on UACC-62 melanoma, 5.11 µM with MDA-MB-231 breast and 1.58 µM in the assay with SK-MEL-2 melanoma. In addition, the TGI was 3.88 µM in the assay with NCI-H522 lung; 2.74 µM in the assay on RPMI-8226 leukemia; 30.6 µM in the assay on NCI-H460 lung; above 100 µM in the assay on HT29 colon; 20.8 µM in the assay on SK-MEL-5 melanoma; 16.8 µM with 786-0 renal. Also, the values for the TGI with UACC-62 melanoma, in the assay on MDA-MB-231 breast and in the assay with SK-MEL-2 melanoma were 9.92 µM, 23.4 µM and 3.56 µM, respectively.
Turning to `O=C1c2cccc3cccc(c23)C(=O)N1CCCCCN1CCN(CCN=c2cc3n(-c4ccc(Cl)cc4)c4ccccc4nc-3cc2Nc2ccc(Cl)cc2)CC1`, the GI50 in the assay with RPMI-8226 leukemia was 5.22 µM; with NCI-H460 lung it was 13.2 µM; in the assay on HT29 colon, 9.13 µM; in the assay with SK-MEL-5 melanoma it was 7.46 µM; with 786-0 renal, 9.6 µM; in the assay with UACC-62 melanoma it was 7.5 µM. Also, the GI50 in the assay on MDA-MB-231 breast was 5.82 µM; in the assay with A498 renal it was above 50 µM. In addition, the TGI in the assay on RPMI-8226 leukemia is 16.9 µM; with NCI-H460 lung it was above 50 µM; in the assay with HT29 colon it was above 50 µM; in the assay on SK-MEL-5 melanoma, 18.1 µM; with 786-0 renal, 30.7 µM; in the assay with UACC-62 melanoma, 20.5 µM. In addition, the TGI with MDA-MB-231 breast is 30.3 µM; in the assay on A498 renal it was above 50 µM.
On to `NCCO/C=C/C(N)C(=O)O` (stereo unspecified), for which the TGI in the assay on NCI-H522 lung, in the assay on RPMI-8226 leukemia, with NCI-H460 lung, with HT29 colon, with SK-MEL-5 melanoma and in the assay with 786-0 renal was above 100 µM throughout. Further, the TGI in the assay on UACC-62 melanoma, in the assay with MDA-MB-231 breast and in the assay with SK-MEL-2 melanoma was above 100 µM throughout.
On to `O=C(Nc1ccc(Cl)cc1C(F)(F)F)C(=O)Nn1c(=S)[nH]c2ccccc2c1=O`, for which the TGI in the assay on RPMI-8226 leukemia, in the assay on NCI-H460 lung, with HT29 colon, with SK-MEL-5 melanoma, with 786-0 renal and in the assay on UACC-62 melanoma was above 100 µM each time. The TGI with MDA-MB-231 breast, with SK-MEL-2 melanoma and in the assay on A498 renal was above 100 µM throughout.
Consider `CC(C)Cc1cnc(CC(C)C)c(=O)[nH]1`, for which the TGI in the assay on RPMI-8226 leukemia, in the assay with NCI-H460 lung, in the assay with HT29 colon, in the assay on SK-MEL-5 melanoma, with 786-0 renal and in the assay on UACC-62 melanoma was above 100 µM each time. For the same molecule, the TGI in the assay on MDA-MB-231 breast, with SK-MEL-2 melanoma and with A498 renal was above 100 µM in each case.
`CCC[CH2][Sn-]([CH2]CCC)([CH2]CCC)[O]C(=O)C(C)C`: the GI50 in the assay on RPMI-8226 leukemia was 0.109 µM; in the assay on NCI-H460 lung, 0.0571 µM; in the assay with HT29 colon, 0.0573 µM; with SK-MEL-5 melanoma it was 0.157 µM; in the assay on 786-0 renal, 0.109 µM; with UACC-62 melanoma it was 0.2 µM. Further, the GI50 in the assay with MDA-MB-231 breast was 0.103 µM; in the assay with SK-MEL-2 melanoma, 0.189 µM; in the assay with A498 renal, 0.153 µM. The TGI with RPMI-8226 leukemia was found to be 0.366 µM; in the assay with NCI-H460 lung it was 0.197 µM; with HT29 colon, 0.208 µM; in the assay on SK-MEL-5 melanoma it was 0.291 µM; in the assay on 786-0 renal it was 0.228 µM; in the assay on UACC-62 melanoma, 0.424 µM. Besides, the results for the TGI in the assay with MDA-MB-231 breast, in the assay with SK-MEL-2 melanoma and with A498 renal were 0.227 µM, 0.411 µM and 0.286 µM, respectively.
